The text below walks through data of patent US8609718B2, “Pharmaceutical composition used in treatment of hyperproliferative skin conditions and malignant melanomas comprising pachastrissamine as active ingredient” (Catholic University Industry Academy Cooperation Foundation, priority 2009, dated 2013).

The test system of assay [1] is HaCaT cell. Nature of the assay: Phase-contrast microscope morphology analysis of surviving cells. The class given is cell-based, human. The settings on record: lithium chloride only, 300 nM; 24 hours; FIG. 2D. The method, then:
HaCaT, B16F10 and A375 cell lines were cultured in the same manner as described in Example 1. The cultured HaCaT cell line was plated onto a 60 mm plate at a concentration of 5×10^4 cells/well, and cultured in a CO2 incubator (37° C., 5%) for 24 hours. The cultured respective cells were divided into 4 groups. One group was added with only pachastrissamine (PA) at a concentration of 10 μg/ml; another group was added with lithium chloride (apoptosis inhibiting material) (at a final concentration of 300 nM) as well as pachastrissamine at a concentration of 10 μg/ml (PA+Li); and a third group was added with only lithium chloride (Li). The last group was a negative control group (Con) and was added with nothing. These groups were cultured in a CO2 incubator (37° C., 5%) for 24 hours, and then the number of cells were measured in the same manner as described in Example 2-2.
The four groups of HaCaT cell samples were washed with PBS, and then surviving cells were subjected to morphology analysis through a phase-contrast microscope (see FIG. 2f).

Assay [2] deals with GSK3-beta / beta-catenin. Nature of the assay: Western blotting of pGSK3-beta, GSK3-beta, pCatenin and Catenin in HaCaT. To be noted: pachastrissamine 10 μg/ml, LiCl 300 nM, 30 minutes, FIG. 5A. The class given is cell-based, human. The procedure:
The pachastrissamine's effect on beta-catenin protein expression was researched. In the same manner as described in Example 1, a HaCaT cell line was cultured.

In assay [3] the test system is HaCaT cell line. Nature of the assay: MTT cell viability analysis (cytotoxicity), HaCaT. To be noted: 0, 0.9, 1.8, 3.7, 7.5, 10 μg/ml, 24 hours, FIG. 1. It is filed as cell-based, human. The procedure: (§1) Pachastrissamine's cytotoxicity on a HaCaT cell line and a malignant melanoma cell line was researched through MTT cell viability analysis.
(§2) First, each of a HaCaT cell line (German Cancer Research, obtained from prof. N. Fuseni, Germany), and two kinds of malignant melanoma cell lines, B16F10 (B16) and A375 were inoculated into a DMEM (Dulbecco's Modified Eagle's Medium) culture medium added with 10% FBS (Thermo Fisher Scientific Inc.), 100 unit/ml penicillin, and 100 μg/ml streptomycin, and then cultured in a CO2 incubator (Form a Scientific, Inc.) (37° C., 5%).
(§3) The cultured HaCaT, B16F10, and A375 cells were plated onto a 96-well plate at a concentration of 5×10^4 cells/well, and cultured in a CO2 incubator (37° C., 5%) for 24 hours. The cells in respective wells were treated with pachastrissamine and phytosphingosine at various concentrations of 0, 0.9, 1.8, 3.7, 7.5, 10 μg/ml, and cultured in a CO2 incubator (37° C., 5%) for 24 hours. After the culturing, in a state where the culture medium existed, each well was added with 5 mg/ml MTT reagent at a concentration of 20 μl/[…], and cultured in an incubator for 2 hours. After 2 hours, the culture medium was removed, and each well was added with 150 μl of DMSO (dimethyl sulfoxide). Then, a spectrophotometer was used to measure the absorbance at 540 nm, thereby analyzing the cell viability. Herein, the cell viability was represented as a relative value with respect to 100% of cell viability in a control group not treated with pachastrissamine and phytosphingosine.

The subject of assay [4] is malignant melanoma cell line B16F10. Kind of assay: MTT cell viability analysis (cytotoxicity), B16F10. It is filed as cell-based. To be noted: 0, 0.9, 1.8, 3.7, 7.5, 10 μg/ml, 24 hours, FIG. 1. The procedure:
as §1, §2, §3

Assay [5] has as its system malignant melanoma cell line A375. Nature of the assay: MTT cell viability analysis (cytotoxicity), A375. The class given is cell-based. The settings on record: 0, 0.9, 1.8, 3.7, 7.5, 10 μg/ml, 24 hours, FIG. 1. The method, then: as §1, §2, §3
The test system of assay [6] is AKT. Kind of assay: Western blotting of AKT phosphorylation. The class given is cell-based. The settings on record: HaCaT, B16F10, A375; 10 μg/ml pachastrissamine, 5 μg/ml phytosphingosine; 30 minutes; FIGS. 3A, 3B. The procedure:
HaCaT, B16F10 and A375 cell lines were cultured in the same manner as described in Example 1. […] 30 minutes later, and 60 minutes later, each of the cell lines was resuspended in RIPA buffer [12 mM EDTA, 137 mM NaCl, 20 mM Tris-HCl (pH 8.0), 1 mM Na3VO4 (Sigma-Aldrich, USA) 10 mM NaF (Sigma), 1 mM PMSF (Sigma), 1% Triton X-100, 10% glycerol, protease inhibiting cocktail (Roche, Germany)], and then put on ice for 30 minutes so that the cells can be completely lysed. The lysate was centrifuged at 14000 rpm for 30 minutes, and the supernatant was collected. A BCA protein analysis kit (Pierce, Rockford, Ill.) was used to determine the concentration of each sample, and the sample was subjected to electrophoresis (SDS-PAGE). Western blotting was carried out on the protein isolated by the electrophoresis. After electrophoresis of the sample, the protein was transferred to a polyvinylidene fluoride membrane (Pall Corporation). Then, after blocking the membrane at room temperature for one hour using 5% BSA solution (Amresco, USA), it was treated with primary antibodies and reaction was carried out for 12 hours at 4° C. The primary antibodies were AKT antibody and Actin antibody (Cell Signaling Technology, Beverly, Mass.), which are antibodies associated in cell proliferation-related signaling. After reaction with primary antibodies, it was washed for about 30 minutes and further reacted for 1 hour at room temperature by treating with HRP-conjugated secondary antibodies. Then, after washing sufficiently for over 30 minutes, protein was identified using an ECL detection kit (intron Biotechnology).
In general terms: Immunoblotting shows a protein as a band on a membrane.

The test system of assay [7] is FoxO3a. Nature of the assay: Western blotting of FoxO3a protein expression in HaCaT. The class given is cell-based, human. To be noted: for level of protein expression of FoxO3a, single material: treated as in Example 3-2, compared to negative control, FIG. 4E. The method, then: A HaCaT cell line was cultured in the same manner as described in Example 1. […] Then, western blotting was carried out by using FoxO3a antibody as a primary antibody.
Then, western blotting was carried out by using FoxO3a antibody as a primary antibody so as to carry out comparative analysis on the level of protein expression.

The test system of assay [8] is p-FoxO3a (Ser 253). Nature of the assay: Western blotting of p-FoxO3a (Ser 253). It is filed as cell-based. The settings on record: HaCaT, A375, B16F10; 10 μg/ml; 30 minutes; FIGS. 4B, 4C. The procedure:
In the same manner as described in Example 4-1, a HaCaT cell line and malignant melanoma cell lines (A375 and B16F10) were treated with pachastrissamine and phytosphingosine at a concentration of 10 μg/ml for 30 minutes and 60 minutes, respectively. Then, western blotting was carried out using p-FoxO3a (Ser 253) antibody.

In assay [9] the test system is ERK. Nature of the assay: Western blotting of ERK activity (pERK) in HaCaT. The class given is cell-based, human. To be noted: pachastrissamine 10 μg/ml, U0126 20 nM, 30 minutes, FIG. 3C. The procedure:
A HaCaT cell line was cultured in the same manner as described in Example 1. […] The last group was a negative control group (−) and was added with nothing.

Assay [10] has as its system FoxO3a / beta-catenin. To be noted: U0126, 30 minutes, FIG. 5C. The procedure: In a HaCaT cell line, pachastrissamine's effect on FoxO3a protein which can be degraded over-expression of beta-catenin was researched. In the same manner as described in Example 1, the HaCaT cell line was cultured. The cultured cells were transfected with beta-catenin so as to induce over-expression of beta-catenin. The cultured cells were plated onto a 6-well plate at a concentration of 3×10^5 cells/well and cultured for 24 hours. After the culturing, after about 12 hours of serum starvation, cells with over-expression of beta-catenin and other cells with transfection of vector were treated with U0126 (ERK inhibitor), and reacted for 30 minutes.

Turning to `[Cl-].[Li+]` [lithium chloride, reference compound], in assay [1], the cell division extent entry is “increased”. In [2], the “phosphorylation of GSK3-beta” value is reported as “GSK3-beta was phosphorylated” and the phosphorylation of beta-catenin entry is reported as “inhibited the phosphorylation of beta-catenin”.

`CCCCCCCCCCCCCC[C@@H](O)[C@@H](O)[C@@H](N)CO` [phytosphingosine, reference compound]: the “cell viability (number of surviving cells) with increasing concentration” value in [3], in assay [4] and in assay [5] was “the number of surviving cells was reduced” throughout. Moreover, in [6], the “phosphorylation of AKT after 30 minutes” value is given as “reduction of phosphorylation of AKT”. Also, the “protein expression level of FoxO3a compared to control group” value in assay [7] (5 and 10 μg/ml, 24 hours, FIG. 4A) was “increased”. For the same compound, the “amount of expressed p-FoxO3a after 30 minutes” value in assay [8] was “reduced”.

On to `COc1cccc(-c2cc(=O)c3ccccc3o2)c1N` [PD98059, reference compound], for which the “level of protein expression of FoxO3a, single material” value in [7] was “significantly increased”.

Take `N#CC(=C(/N)Sc1ccccc1N)/C(C#N)=C(\N)Sc1ccccc1N` [U0126, reference compound]: the “ERK activation (phosphorylation of ERK)” value in [9] is recorded as “almost completely inhibited the phosphorylation of ERK”. Also, in assay [7], the “level of protein expression of FoxO3a, single material” value is “significantly increased”. The “expression level of FoxO3a protein reduced by over-expression of beta-catenin” value in [10] (HaCaT transfected with beta-catenin) is “restored”. Besides, the “protein expression level of beta-catenin” value in assay [10] (HaCaT with or without over-expression of beta-catenin) was “no effect”.
